Data taken from ChEMBL document CHEMBL4130448, “Novel SERMs based on 3-aryl-4-aryloxy-2H-chromen-2-one skeleton - A possible way to dual ERα/VEGFR-2 ligands for treatment of breast cancer” (Eur J Med Chem, 2017).
Active and inactive are the calls of the source. The calls are words filed in the database; no cut-off is given here.

Experiments:
MCF7 [1] = test: cells; settings: Homo sapiens, MCF7, 48 h
Description: Cytotoxicity in human MCF7 cells assessed as inhibition of cell growth incubated for 48 hrs by MTT assay

Estrogen receptor = target: T1, Estrogen receptor (Homo sapiens, UniProt P03372); test: Displacement of fluorescent estrogen ligand from recombinant human ERalpha expressed in insect cells incubated for 2 hrs by polarization
T1 sequence (P03372 whole entry): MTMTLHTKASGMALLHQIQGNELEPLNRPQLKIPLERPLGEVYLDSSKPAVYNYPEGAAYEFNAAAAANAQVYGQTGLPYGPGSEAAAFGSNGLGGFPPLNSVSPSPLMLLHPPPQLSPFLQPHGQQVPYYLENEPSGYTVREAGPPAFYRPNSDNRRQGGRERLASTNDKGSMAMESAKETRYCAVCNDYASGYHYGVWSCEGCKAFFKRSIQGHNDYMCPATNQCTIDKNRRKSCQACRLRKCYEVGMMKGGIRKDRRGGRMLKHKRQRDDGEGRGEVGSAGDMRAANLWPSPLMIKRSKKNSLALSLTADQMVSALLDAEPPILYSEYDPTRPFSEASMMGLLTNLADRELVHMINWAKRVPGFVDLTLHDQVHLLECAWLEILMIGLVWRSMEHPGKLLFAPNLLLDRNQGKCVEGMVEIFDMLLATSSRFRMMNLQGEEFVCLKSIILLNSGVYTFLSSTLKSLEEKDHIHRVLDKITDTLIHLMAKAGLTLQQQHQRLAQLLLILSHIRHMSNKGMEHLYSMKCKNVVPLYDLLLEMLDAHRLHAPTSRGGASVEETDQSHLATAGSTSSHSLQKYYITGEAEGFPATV

Ishikawa = test: cells; settings: Homo sapiens, 48 h
Description: Cytotoxicity in human Ishikawa cells assessed as inhibition of cell growth incubated for 48 hrs by MTT assay

HUVEC = test: Antiangiogenic activity against HUVEC incubated for 48 hrs by MTT assay; format: functional, cell-based; settings: Homo sapiens
[2] = target: Vascular endothelial growth factor receptor 2 (Homo sapiens) (UniProt P35968); test: Inhibition of His-tagged human VEGFR2 at 40 uM incubated for 1 hr by HTRF assay
MCF7 [3] = test: Induction of cell cycle arrest in human MCF7 cells assessed as accumulation at G0/G1 phase at 6 uM incubated for 24 hrs by propidium iodide staining flow cytometry (reference value: 48.52%); format: functional
[4] = target: Vascular endothelial growth factor receptor 2 (Homo sapiens) (UniProt P35968); test: Inhibition of VEGFR2 phosphorylation in human MCF7 cells incubated for 24 hrs by Western blot method; format: cell-based
MCF7 [5] = test: Induction of cell cycle arrest in human MCF7 cells assessed as accumulation at G2/M phase at 2 uM incubated for 24 hrs by propidium iodide staining flow cytometry (reference value: 26.84%); format: functional
MCF7 [6] = test: Induction of cell cycle arrest in human MCF7 cells assessed as accumulation at S phase at 2 uM incubated for 24 hrs by propidium iodide staining flow cytometry (reference value: 24.64%); format: functional
MCF7 [7] = test: Induction of cell cycle arrest in human MCF7 cells assessed as accumulation at S phase at 6 uM incubated for 24 hrs by propidium iodide staining flow cytometry (reference value: 24.64%); format: functional
MCF7 [8] = test: Induction of cell cycle arrest in human MCF7 cells assessed as accumulation at G2/M phase at 4 uM incubated for 24 hrs by propidium iodide staining flow cytometry (reference value: 26.84%); format: functional
MCF7 [9] = test: Effect on total ERK1/2 protein level in human MCF7 cells at 2 to 4 uM incubated for 24 hrs by Western blot method; format: ADME, cell-based; settings: mcf7, 24 h
[10] = target: Vascular endothelial growth factor receptor 2 (Homo sapiens) (UniProt P35968); test: Inhibition of VEGFR2 phosphorylation in human MCF7 cells at 2 uM incubated for 24 hrs by Western blot method relative to sunitinib; format: cell-based
MCF7 [11] = test: Induction of cell cycle arrest in human MCF7 cells assessed as reduction in accumulation at S phase incubated for 24 hrs by propidium iodide staining flow cytometry; format: functional, cell-based
MCF7 [12] = test: Induction of cell cycle arrest in human MCF7 cells assessed as reduction in accumulation at G2/M phase incubated for 24 hrs by propidium iodide staining flow cytometry; format: functional, cell-based
MCF7 [13] = test: Induction of cell cycle arrest in human MCF7 cells assessed as accumulation at G2/M phase at 6 uM incubated for 24 hrs by propidium iodide staining flow cytometry (reference value: 26.84%); format: functional
MCF7 [14] = test: Induction of cell cycle arrest in human MCF7 cells assessed as accumulation at S phase at 4 uM incubated for 24 hrs by propidium iodide staining flow cytometry (reference value: 24.64%); format: functional
MCF7 [15] = test: Induction of cell cycle arrest in human MCF7 cells assessed as accumulation at G0/G1 phase incubated for 24 hrs by propidium iodide staining flow cytometry; format: functional, cell-based
MCF7 [16] = test: Effect on total Raf1 protein level in human MCF7 cells at 2 to 4 uM incubated for 24 hrs by Western blot method; format: ADME, cell-based; settings: mcf7, 24 h
[17] = target: Vascular endothelial growth factor receptor 2 (Homo sapiens) (UniProt P35968); test: Inhibition of VEGFR2 in human MCF7 cells assessed as reduction in p-ERK1/2 protein level incubated for 24 hrs by Western blot method; format: cell-based
MCF7 [18] = test: Induction of cell cycle arrest in human MCF7 cells assessed as accumulation at G0/G1 phase at 4 uM incubated for 24 hrs by propidium iodide staining flow cytometry (reference value: 48.52%); format: functional
MCF7 [19] = test: Induction of cell cycle arrest in human MCF7 cells assessed as accumulation at G0/G1 phase at 2 uM incubated for 24 hrs by propidium iodide staining flow cytometry (reference value: 48.52%); format: functional
[20] = target: Vascular endothelial growth factor receptor 2 (Homo sapiens) (UniProt P35968); test: Inhibition of VEGFR2 in human MCF7 cells assessed as reduction in p-Raf1 protein level incubated for 24 hrs by Western blot method; format: cell-based

Sequence of Vascular endothelial growth factor receptor 2 (Homo sapiens) (P35968 whole entry): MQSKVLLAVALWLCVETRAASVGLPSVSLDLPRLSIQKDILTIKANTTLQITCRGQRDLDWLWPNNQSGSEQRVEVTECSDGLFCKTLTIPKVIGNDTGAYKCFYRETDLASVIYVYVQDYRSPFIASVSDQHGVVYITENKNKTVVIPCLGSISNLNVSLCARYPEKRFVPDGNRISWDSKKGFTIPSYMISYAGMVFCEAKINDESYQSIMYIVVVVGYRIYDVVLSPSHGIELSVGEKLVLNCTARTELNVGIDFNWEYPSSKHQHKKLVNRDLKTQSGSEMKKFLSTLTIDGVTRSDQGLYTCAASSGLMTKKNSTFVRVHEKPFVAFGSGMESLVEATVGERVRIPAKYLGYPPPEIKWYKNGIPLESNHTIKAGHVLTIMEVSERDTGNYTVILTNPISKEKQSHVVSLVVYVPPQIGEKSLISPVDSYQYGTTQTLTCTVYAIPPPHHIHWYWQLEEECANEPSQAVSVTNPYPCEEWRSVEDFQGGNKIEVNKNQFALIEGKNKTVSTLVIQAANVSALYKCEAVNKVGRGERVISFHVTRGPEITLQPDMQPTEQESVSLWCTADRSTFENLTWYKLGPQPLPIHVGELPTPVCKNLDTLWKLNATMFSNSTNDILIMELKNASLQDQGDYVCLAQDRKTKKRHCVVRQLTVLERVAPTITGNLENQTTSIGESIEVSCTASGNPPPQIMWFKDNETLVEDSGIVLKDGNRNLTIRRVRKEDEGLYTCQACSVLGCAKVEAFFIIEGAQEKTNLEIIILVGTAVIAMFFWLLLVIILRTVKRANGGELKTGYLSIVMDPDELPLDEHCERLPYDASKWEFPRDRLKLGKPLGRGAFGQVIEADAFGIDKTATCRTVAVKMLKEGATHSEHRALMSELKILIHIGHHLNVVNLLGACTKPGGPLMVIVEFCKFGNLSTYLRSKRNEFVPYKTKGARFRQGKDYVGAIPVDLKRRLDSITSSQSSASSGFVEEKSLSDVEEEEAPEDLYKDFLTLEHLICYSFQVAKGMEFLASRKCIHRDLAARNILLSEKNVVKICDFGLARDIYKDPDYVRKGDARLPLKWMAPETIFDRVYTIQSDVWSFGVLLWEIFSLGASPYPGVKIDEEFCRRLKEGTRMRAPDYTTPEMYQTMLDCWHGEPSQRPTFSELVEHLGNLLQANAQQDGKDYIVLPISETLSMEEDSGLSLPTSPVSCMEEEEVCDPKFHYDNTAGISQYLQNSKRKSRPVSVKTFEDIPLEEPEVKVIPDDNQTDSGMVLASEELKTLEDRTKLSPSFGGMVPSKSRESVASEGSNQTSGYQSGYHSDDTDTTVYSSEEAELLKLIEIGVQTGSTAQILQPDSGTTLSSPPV

| SMILES | IC50 (MCF7 [1]) | IC50 (Estrogen receptor) | IC50 (Ishikawa) | also measured |
| --- | --- | --- | --- | --- |
| CCN(CC)CCOc1ccc(Oc2c(-c3ccc(O)cc3)c(=O)oc3cc(O)ccc23)cc1 | > 50 µM | > 10 µM | > 50 µM |  |
| CN(C)CCOc1ccc(Nc2c(-c3ccc(F)cc3)c(=O)oc3cc(O)ccc23)cc1 | 19.3 µM | 6.62 µM | 24.8 µM |  |
| O=c1oc2cc(O)ccc2c(Oc2ccc(OCCN3CCCC3)cc2)c1-c1ccc(O)cc1 | 23.9 µM | 6.84 µM | 24.5 µM |  |
| COc1ccc(-c2c(Oc3ccc(OCCN(C)C)cc3)c3ccc(OC)cc3oc2=O)cc1 | 17.8 µM | > 10 µM | 11.4 µM |  |
| CN(C)CCOc1ccc(Nc2c(-c3ccc(O)cc3)c(=O)oc3cc(O)ccc23)cc1 | 28.4 µM | 8.21 µM | 30.2 µM |  |
| COc1ccc2c(Oc3ccc(OCCN4CCCCC4)cc3)c(-c3ccc(F)cc3)c(=O)oc2c1 | 9.32 µM | 6.87 µM | 8.41 µM | IC50 (HUVEC): 13.6 µM; inhibition [2]: 55.1% |
| COc1ccc(-c2c(Oc3ccc(OCCN4CCCC4)cc3)c3ccc(OC)cc3oc2=O)cc1 | 14.4 µM | > 10 µM | 8.53 µM |  |
| COc1ccc2c(Nc3ccc(OCCN(C)C)cc3)c(-c3ccc(F)cc3)c(=O)oc2c1 | 31.6 µM | > 10 µM | 13.5 µM |  |
| COc1ccc(-c2c(Oc3ccc(OCCN4CCCCC4)cc3)c3ccc(OC)cc3oc2=O)cc1 | 9.62 µM | 9.42 µM | 7.47 µM | IC50 (HUVEC): 7.64 µM; inhibition [2]: 67.6% |
| O=c1oc2ccccc2c(Nc2ccc(OCCN3CCCCC3)cc2)c1-c1ccc(F)cc1 | 11.3 µM | 7.79 µM | 10.3 µM | IC50 (HUVEC): 17.2 µM; inhibition [2]: 41.8% |
| O=c1oc2cc(O)ccc2c(Oc2ccc(OCCN3CCCCC3)cc2)c1-c1ccc(F)cc1 | 9.54 µM | 2.19 µM | 11.1 µM | Activity (MCF7 [3]): 75.46%; inhibition [4]: Dose-dependent effect; Activity (MCF7 [5]): 20.81%; Activity (MCF7 [6]): 18.52%; IC50 (HUVEC): 15.7 µM; Activity (MCF7 [7]): 14.69%; Activity (MCF7 [8]): 16.22%; Activity (MCF7 [9]): Non-Toxic; inhibition [10]: Active; Activity (MCF7 [11]): Dose-dependent effect; Activity (MCF7 [12]): Dose-dependent effect; inhibition [2]: 82.9%; Activity (MCF7 [13]): 9.85%; Activity (MCF7 [14]): 18.41%; Activity (MCF7 [15]): Dose-dependent effect; Activity (MCF7 [16]): Non-Toxic; inhibition [17]: Dose-dependent effect; Activity (MCF7 [18]): 65.37%; Activity (MCF7 [19]): 60.67%; inhibition [20]: Dose-dependent effect |
| O=c1oc2cc(O)ccc2c(Nc2ccc(OCCN3CCCCC3)cc2)c1-c1ccc(O)cc1 | 18.7 µM | 3.82 µM | 24.6 µM | IC50 (HUVEC): 30.8 µM; inhibition [2]: 83.2% |
| CCN(CC)CCOc1ccc(Nc2c(-c3ccc(F)cc3)c(=O)oc3ccccc23)cc1 | 26.4 µM | > 10 µM | 24.7 µM |  |
| COc1ccc2c(Oc3ccc(OCCN4CCCC4)cc3)c(-c3ccc(F)cc3)c(=O)oc2c1 | 14.6 µM | > 10 µM | 15.1 µM |  |
| CCN(CC)CCOc1ccc(Oc2c(-c3ccc(F)cc3)c(=O)oc3cc(O)ccc23)cc1 | 21.3 µM | 3.55 µM | 17.4 µM |  |
| CCN(CC)CCOc1ccc(Oc2c(-c3ccc(F)cc3)c(=O)oc3cc(OC)ccc23)cc1 | 16.6 µM | > 10 µM | 15.7 µM |  |
| CN(C)CCOc1ccc(Nc2c(-c3ccc(F)cc3)c(=O)oc3ccccc23)cc1 | 32.5 µM | > 10 µM | 28.5 µM |  |
| CCN(CC)CCOc1ccc(Oc2c(-c3ccc(OC)cc3)c(=O)oc3cc(OC)ccc23)cc1 | 15.3 µM | > 10 µM | 9.32 µM |  |

| SMILES | IC50 (MCF7 [1]) | IC50 (Estrogen receptor) | IC50 (Ishikawa) | also measured |
| --- | --- | --- | --- | --- |
| O=c1oc2cc(O)ccc2c(Oc2ccc(OCCN3CCCCC3)cc2)c1-c1ccc(O)cc1 | 19.7 µM | 2.62 µM | 28.4 µM | IC50 (HUVEC): 23.9 µM; inhibition [2]: 66.1% |
| O=c1oc2cc(O)ccc2c(Nc2ccc(OCCN3CCCCC3)cc2)c1-c1ccc(F)cc1 | 7.06 µM | 3.86 µM | 10.4 µM | IC50 (HUVEC): 9.92 µM; inhibition [2]: 88.4% |
| O=c1oc2ccccc2c(Nc2ccc(OCCN3CCCC3)cc2)c1-c1ccc(F)cc1 | 26.1 µM | > 10 µM | 25.7 µM |  |
| COc1ccc2c(Nc3ccc(OCCN4CCCC4)cc3)c(-c3ccc(F)cc3)c(=O)oc2c1 | 21.5 µM | > 10 µM | 12.5 µM |  |
| O=c1oc2cc(O)ccc2c(Oc2ccc(OCCN3CCCC3)cc2)c1-c1ccc(F)cc1 | 16.8 µM | 4.27 µM | 22.6 µM |  |
| CN(C)CCOc1ccc(Oc2c(-c3ccc(O)cc3)c(=O)oc3cc(O)ccc23)cc1 | 41.4 µM | 8.43 µM | 37 µM |  |
| CN(C)CCOc1ccc(Oc2c(-c3ccc(F)cc3)c(=O)oc3cc(O)ccc23)cc1 | 16.6 µM | 6.43 µM | 18.7 µM |  |
| COc1cc2/c(=N/c3ccc(Br)cc3F)nc[nH]c2cc1OCC1CCN(C)CC1 [VANDETANIB] | 16.5 µM |  |  | IC50 (HUVEC): 6.76 µM; inhibition [2]: 95.7% |
| CC/C(=C(\c1ccccc1)c1ccc(OCCN(C)C)cc1)c1ccccc1 [TAMOXIFEN] | 14.3 µM |  | 20.7 µM |  |
| CCN(CC)CCOc1ccc(Nc2c(-c3ccc(F)cc3)c(=O)oc3cc(O)ccc23)cc1 | 17.5 µM | 4.37 µM | 17.2 µM |  |
| CCN(CC)CCOc1ccc(Nc2c(-c3ccc(O)cc3)c(=O)oc3cc(O)ccc23)cc1 | 27.5 µM | 5.97 µM | 29.1 µM |  |
| COc1ccc2c(Nc3ccc(OCCN4CCCCC4)cc3)c(-c3ccc(F)cc3)c(=O)oc2c1 | 12.6 µM | 7.96 µM | 8.71 µM | IC50 (HUVEC): 9.05 µM; inhibition [2]: 66% |
| O=c1oc2cc(O)ccc2c(Nc2ccc(OCCN3CCCC3)cc2)c1-c1ccc(F)cc1 | 13.9 µM | 4.53 µM | 21.5 µM |  |
| COc1ccc(-c2c(Nc3ccc(OCCN4CCCCC4)cc3)c3ccc(O)cc3oc2=O)cc1 | 11.4 µM | 6.64 µM | 14.4 µM | IC50 (HUVEC): 16.2 µM; inhibition [2]: 59.3% |
| O=c1oc2cc(O)ccc2c(Nc2ccc(OCCN3CCCC3)cc2)c1-c1ccc(O)cc1 | 20.7 µM | 6.43 µM | 26.7 µM |  |
| COc1ccc2c(Oc3ccc(OCCN(C)C)cc3)c(-c3ccc(F)cc3)c(=O)oc2c1 | 15.3 µM | 8.96 µM | 17.3 µM |  |
| CCN(CC)CCOc1ccc(Nc2c(-c3ccc(F)cc3)c(=O)oc3cc(OC)ccc23)cc1 | 26.3 µM | > 10 µM | 17.9 µM |  |
